# According to ChEMBL document CHEMBL1777732 (Bioorg Med Chem Lett, 2011):
# The source made the active and inactive calls. The calls are words filed in the database; no cut-off is given here.
# Experiments:
# [1] = molecular target: T1, Metabotropic glutamate receptor 5 (Homo sapiens, UniProt P41594); assay: Displacement of [3H]-MPEP from human mGluR5 expressed in HEK293 cells after 2 hrs; format: cell-based
# Target sequence in this assay (P41594 whole entry): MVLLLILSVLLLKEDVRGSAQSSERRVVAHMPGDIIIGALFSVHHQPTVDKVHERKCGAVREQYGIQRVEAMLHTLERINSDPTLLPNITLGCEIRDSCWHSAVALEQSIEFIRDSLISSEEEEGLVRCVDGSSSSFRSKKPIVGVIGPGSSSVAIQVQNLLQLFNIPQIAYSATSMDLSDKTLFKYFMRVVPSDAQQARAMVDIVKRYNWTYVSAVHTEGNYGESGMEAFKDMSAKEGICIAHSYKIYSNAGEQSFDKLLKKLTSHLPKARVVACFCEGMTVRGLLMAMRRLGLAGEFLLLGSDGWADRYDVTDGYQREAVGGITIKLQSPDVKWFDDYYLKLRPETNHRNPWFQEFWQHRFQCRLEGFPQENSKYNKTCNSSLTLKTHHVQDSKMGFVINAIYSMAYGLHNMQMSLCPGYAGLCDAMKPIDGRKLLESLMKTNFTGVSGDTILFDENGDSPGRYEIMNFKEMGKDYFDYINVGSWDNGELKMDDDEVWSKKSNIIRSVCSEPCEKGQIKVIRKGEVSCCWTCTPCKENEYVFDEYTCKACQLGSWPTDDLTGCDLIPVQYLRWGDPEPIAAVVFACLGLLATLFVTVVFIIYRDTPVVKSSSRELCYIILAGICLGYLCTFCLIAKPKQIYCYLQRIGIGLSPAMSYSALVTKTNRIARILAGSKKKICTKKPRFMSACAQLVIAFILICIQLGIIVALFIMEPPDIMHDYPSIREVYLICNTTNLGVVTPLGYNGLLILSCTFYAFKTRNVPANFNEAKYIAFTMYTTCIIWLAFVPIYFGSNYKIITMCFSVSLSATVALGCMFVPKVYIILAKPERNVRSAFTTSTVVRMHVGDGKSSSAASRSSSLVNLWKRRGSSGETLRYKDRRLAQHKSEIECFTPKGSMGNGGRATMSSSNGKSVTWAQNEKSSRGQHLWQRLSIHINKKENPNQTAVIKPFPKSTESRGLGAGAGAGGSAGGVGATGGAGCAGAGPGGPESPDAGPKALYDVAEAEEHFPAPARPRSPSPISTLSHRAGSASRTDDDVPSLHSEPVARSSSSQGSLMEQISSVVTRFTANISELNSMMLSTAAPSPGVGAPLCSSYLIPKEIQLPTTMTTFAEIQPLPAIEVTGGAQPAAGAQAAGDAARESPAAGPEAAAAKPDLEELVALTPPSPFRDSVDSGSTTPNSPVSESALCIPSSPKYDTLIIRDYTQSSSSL
# [2] = molecular target: T1, Metabotropic glutamate receptor 5; assay: Negative allosteric modulation of human mGluR5 expressed in HEK293 cells assessed as inhibition of L-glutamate-induced calcium mobilization at 10 uM by FLIPR assay relative to control; format: functional, cell-based
# Target sequence in this assay (P41594 21-1212 limits assumed): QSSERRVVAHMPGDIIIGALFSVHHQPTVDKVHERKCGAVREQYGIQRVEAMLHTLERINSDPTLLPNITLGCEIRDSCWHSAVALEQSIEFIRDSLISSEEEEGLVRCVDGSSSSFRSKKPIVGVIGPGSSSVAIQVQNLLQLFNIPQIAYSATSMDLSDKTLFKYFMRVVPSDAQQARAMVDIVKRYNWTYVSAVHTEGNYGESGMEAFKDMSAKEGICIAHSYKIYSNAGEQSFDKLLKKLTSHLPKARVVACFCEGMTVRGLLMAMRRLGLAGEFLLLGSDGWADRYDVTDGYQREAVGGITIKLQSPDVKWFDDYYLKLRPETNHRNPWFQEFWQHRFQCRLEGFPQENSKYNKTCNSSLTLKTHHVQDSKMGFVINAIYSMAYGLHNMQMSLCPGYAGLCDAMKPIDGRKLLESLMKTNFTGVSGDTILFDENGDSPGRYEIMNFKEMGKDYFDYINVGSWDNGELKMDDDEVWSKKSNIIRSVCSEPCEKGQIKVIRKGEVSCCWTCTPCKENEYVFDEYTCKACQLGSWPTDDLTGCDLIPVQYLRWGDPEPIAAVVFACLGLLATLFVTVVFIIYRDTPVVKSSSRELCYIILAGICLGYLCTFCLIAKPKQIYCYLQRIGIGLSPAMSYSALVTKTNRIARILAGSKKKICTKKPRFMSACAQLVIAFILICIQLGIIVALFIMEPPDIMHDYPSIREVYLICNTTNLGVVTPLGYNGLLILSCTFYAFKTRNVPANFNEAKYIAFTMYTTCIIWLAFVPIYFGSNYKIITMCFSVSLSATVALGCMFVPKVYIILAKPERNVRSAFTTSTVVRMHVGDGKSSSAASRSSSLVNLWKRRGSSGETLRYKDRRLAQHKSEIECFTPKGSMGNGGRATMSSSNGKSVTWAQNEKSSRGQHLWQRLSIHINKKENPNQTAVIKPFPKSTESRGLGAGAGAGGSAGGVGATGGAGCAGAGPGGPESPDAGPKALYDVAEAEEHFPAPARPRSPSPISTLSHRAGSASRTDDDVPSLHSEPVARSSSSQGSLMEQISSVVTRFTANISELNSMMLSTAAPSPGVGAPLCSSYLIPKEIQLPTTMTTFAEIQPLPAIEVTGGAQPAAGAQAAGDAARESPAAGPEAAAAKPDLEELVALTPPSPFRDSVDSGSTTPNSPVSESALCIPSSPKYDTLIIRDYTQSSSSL
# [3] = molecular target: T1, Metabotropic glutamate receptor 5; assay: Negative allosteric modulation of human mGluR5 expressed in HEK293 cells assessed as inhibition of L-glutamate-induced calcium mobilization by FLIPR assay; format: functional, cell-based
# Target sequence in this assay (P41594 whole entry): as the sequence (P41594 whole entry) above
# [4] = molecular target: T1, Metabotropic glutamate receptor 5; assay: Positive allosteric modulation of human mGluR5 expressed in HEK293 cells assessed as increase of L-glutamate-induced calcium mobilization by FLIPR assay; format: functional, cell-based
# Target sequence in this assay (P41594 whole entry): as above
# [5] = molecular target: T1, Metabotropic glutamate receptor 5; assay: Positive allosteric modulation of human mGluR5 expressed in HEK293 cells assessed as increase of L-glutamate-induced calcium mobilization at 10 uM by FLIPR assay relative to L-glutamate; format: functional, cell-based
# Target sequence in this assay (P41594 21-1212 limits assumed): as the sequence (P41594 21-1212 limits assumed) above
SMILES,Ki [1],Imax [2],IC50 ([3]; read-out: IC50),EC50 ([4]; read-out: EC50),Emax [5],IC50 ([3]; hek293),EC50 ([4]; hek293)
Cc1ccccc1C#Cc1ccc2c(n1)CCN(C1CCCC1)C2=O,18800 nM,,,239 nM,107%,,
Cc1ccc(C#Cc2ccc3c(n2)CCN(C2CCCCC2)C3=O)cc1,27200 nM,,,,,,
CN1CCc2nc(C#Cc3cccnc3)ccc2C1=O,27400 nM,,,,,Not Active,Not Active
O=C1c2ccc(C#Cc3ccccc3Cl)nc2CCN1C1CCCC1,> 32000 nM,,,393 nM,115%,,
O=C1c2ccc(C#Cc3cccnc3)nc2CCN1C1CCCCC1,15600 nM,,,387 nM,73%,,
O=C1c2ccc(C#Cc3ccc(Cl)cc3)nc2CCN1C1CCCC1,> 32000 nM,,,979 nM,98%,,
Cc1ccc(C#Cc2ccc3c(n2)CCN(C2CCCC2)C3=O)cc1,> 32000 nM,,,4820 nM,97%,,
Cc1ccccc1C#Cc1ccc2c(n1)CCN(C(C)C)C2=O,> 32000 nM,76%,810 nM,,,,
Cc1ccccc1C#Cc1ccc2c(n1)CCN(C1CCCCC1)C2=O,> 32000 nM,,,466 nM,62%,,
O=C(NC1CCCC1)c1ccc(C#Cc2cccnc2)nc1,> 32000 nM,,,> 10000 nM,68%,,
Cc1ccc(C#Cc2ccc3c(n2)CCN(C(C)C)C3=O)cc1,20200 nM,,,1010 nM,28%,,
CC(C)N1CCc2nc(C#Cc3cccnc3)ccc2C1=O,19600 nM,,,,,Not Active,Not Active
O=C1c2ccc(C#Cc3ccccc3Cl)nc2CCN1C1CCCCC1,> 32000 nM,,,924 nM,68%,,
CC(C)N1CCc2nc(C#Cc3ccc(Cl)cc3)ccc2C1=O,27100 nM,61%,4230 nM,,,,
COc1cccc(C#Cc2ccc3c(n2)CCN(C2CCCCC2)C3=O)c1,23200 nM,,,,,,
Cc1ccccc1C#Cc1ccc2c(n1)CCN(C)C2=O,> 32000 nM,80%,776 nM,,,,
O=C1c2ccc(C#Cc3cccnc3)nc2CCN1C1CCCC1,> 32000 nM,,,748 nM,68%,,
O=C1c2ccc(C#Cc3ccccc3)nc2CCN1C1CCCCC1,12400 nM,,,40 nM,122%,,
O=C1c2ccc(C#Cc3cccc(Cl)c3)nc2CCN1C1CCCCC1,12000 nM,,,171 nM,47%,,
CNC(=O)c1ccc(C#Cc2ccccc2)nc1,15000 nM,,,,,,
O=C1c2ccc(C#Cc3ccc(Cl)cc3)nc2CCN1C1CCCCC1,> 32000 nM,inactive,,,inactive,Not Active,Not Active
COc1cccc(C#Cc2ccc3c(n2)CCN(C2CCCC2)C3=O)c1,> 32000 nM,,,462 nM,25%,,

# These reach a lower Ki [1]. Values come first.
Ki [1],Imax [2],IC50 ([3]; read-out: IC50),EC50 ([4]; read-out: EC50),Emax [5],IC50 ([3]; hek293),EC50 ([4]; hek293),SMILES
5680 nM,61%,2520 nM,,,,,CC(C)N1CCc2nc(C#Cc3ccccc3Cl)ccc2C1=O
820 nM,86%,2.9 nM,,,,,Cc1cccc(C#Cc2ccc3c(n2)CCN(C)C3=O)c1
6240 nM,92%,184 nM,,,,,CN1CCc2nc(C#Cc3ccccn3)ccc2C1=O
6150 nM,73%,352 nM,,,,,CN1CCc2nc(C#Cc3ccc(Cl)cc3)ccc2C1=O
7900 nM,70%,916 nM,,,,,CN1CCc2nc(C#Cc3ccccc3Cl)ccc2C1=O
890 nM,,,5.9 nM,109%,,,O=C1c2ccc(C#Cc3ccccc3)nc2CCN1C1CCCC1
5230 nM,,,33 nM,87%,,,O=C1c2ccc(C#Cc3cccc(Cl)c3)nc2CCN1C1CCCC1
1930 nM,78%,45 nM,,,,,CC(C)N1CCc2nc(C#Cc3cccs3)ccc2C1=O
3660 nM,88%,293 nM,,,,,COc1cccc(C#Cc2ccc3c(n2)CCN(C)C3=O)c1
720 nM,,,13 nM,112%,,,O=C1c2ccc(C#Cc3cccs3)nc2CCN1C1CCCCC1
100 nM,86%,5.7 nM,,,,,CC(C)N1CCc2nc(C#Cc3cccc(Cl)c3)ccc2C1=O
7100 nM,,,62 nM,61%,,,CC(C)NC(=O)c1ccc(C#Cc2ccccc2)nc1
510 nM,88%,4.8 nM,,,,,Cc1cccc(C#Cc2ccc3c(n2)CCN(C(C)C)C3=O)c1
2950 nM,88%,111 nM,,,,,COc1cccc(C#Cc2ccc3c(n2)CCN(C(C)C)C3=O)c1
3300 nM,,,19 nM,106%,,,O=C(NC1CCCC1)c1ccc(C#Cc2ccccc2)nc1
2740 nM,89%,27 nM,,,,,CC(C)N1CCc2nc(C#Cc3ccccn3)ccc2C1=O
250 nM,84%,22 nM,,,,,CN1CCc2nc(C#Cc3cccc(Cl)c3)ccc2C1=O
2240 nM,74%,518 nM,,,,,O=C1c2ccc(C#Cc3ccccn3)nc2CCN1C1CCCCC1
1770 nM,80%,199 nM,,,,,O=C1c2ccc(C#Cc3ccccn3)nc2CCN1C1CCCC1
7600 nM,90%,227 nM,,,,,O=C(NC1CCCC1)c1ccc(C#Cc2ccccn2)nc1
2170 nM,49%,451 nM,,,,,CN1CCc2nc(C#Cc3cccs3)ccc2C1=O
7450 nM,68%,1400 nM,,,,,Cc1ccc(C#Cc2ccc3c(n2)CCN(C)C3=O)cc1
1280 nM,60%,706 nM,,,,,CC(C)N1CCc2nc(C#Cc3ccccc3)ccc2C1=O
2840 nM,,,12 nM,103%,,,O=C1c2ccc(C#Cc3cccs3)nc2CCN1C1CCCC1
760 nM,58%,30 nM,,,,,CN1CCc2nc(C#Cc3ccccc3)ccc2C1=O
3210 nM,,,36 nM,54%,,,Cc1cccc(C#Cc2ccc3c(n2)CCN(C2CCCCC2)C3=O)c1
670 nM,,,7.5 nM,97%,,,Cc1cccc(C#Cc2ccc3c(n2)CCN(C2CCCC2)C3=O)c1
